Assay results as given in patent publication US10030027B2, “Soluble guanylate cyclase stimulators” (MERCK SHARP & DOHME CORP., priority 2015, dated 2018).

Assays:
sGC α1/β1 heterodimer = sGC α1/β1 heterodimer (Homo sapiens (Human), UniProt Q02108+Q02153); test: Cell-based sGC functional assay (cyclic GMP assay for sGC activator: CASA assay); conditions: CHO-K1/sGC cells; for Emax: CHO-K1, activity expressed as percentage of compound A (standard), read-out: % Activation; for EC50: inflection point, 4P fit, read-out: IP
Outline: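 CHO-K1 cells stably expressing sGC α1/β1 were pre-incubated with or without 1 μM DETA-NO (30 min, 25 °C), then exposed to compounds for 1 hr at 37 °C with 0.5 mM IBMX. Intracellular cGMP was read by HTRF and expressed as a percentage of a reference heme-dependent activator's maximum.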

[1] = molecular target: human recombinant sGC enzyme (Homo sapiens (Human), UniProt Q02108+Q02153); test: Size Exclusion Chromatography (SEC) competition binding assay using [3H] Ex-77B as the radioligand; conditions: [3H] Ex-77B radioligand, 24 hours at 37° C.
Outline: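 Recombinant human sGC binding measured by competition against tritiated Ex-77B radioligand, with non-specific binding defined by 1 μM unlabeled Ex-77B.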

[2] = test system: Spontaneously hypertensive rats (SHR); test: Acute efficacy in spontaneously hypertensive rats (SHR); assay type: in vivo, rat
Description: Acute Efficacy in Spontaneously Hypertensive Rats (SHR)
Spontaneously hypertensive rats (SHR, male, Charles River) were implanted with DSI TA11PA-C40 telemetry device (Data Sciences, Inc., St. Paul, Minn.) under isoflurane or ketamine/metomidine anesthesia. The telemetry unit catheter was inserted into the descending aorta via the femoral artery and the telemetry device was implanted subcutaneously in the left flank area. Animals were allowed to recover from surgery for 14 days before the start of any studies. Blood pressure, heart rate, and activity signals from conscious, freely moving rats were recorded continuously for 30 seconds every 10 minutes. On the day prior to administration of compound, a single oral dose of vehicle (10% transcutol/20% Cremophor/70% water) was administered to all animals to establish baseline control data. The blood pressure lowering efficacy of compound (PO) or vehicle was evaluated following a single oral gavage. Data were collected as hourly averages, and changes in blood pressure were calculated by subtracting control baseline data on an hourly basis. Animals were maintained on normal diet with a 12 hour light-dark cycle.
Maximum peak decreases of systolic blood pressure (SBP) in SHR at a particular P.O. dose (mpk milligrams per kilogram) for the following Example compounds are provided.

[3] = test system: hypoxia-induced pulmonary hypertension rat; test: Acute efficacy in hypoxia-induced pulmonary hypertension in rat following intratracheal administration; assay type: in vivo
Description: Acute Efficacy in Hypoxia-Induced Pulmonary Hypertension in Rat Following Intratracheal Administration Charles River Sprague-Dawley (CD) male rats weighing approximately 350 g were implanted with HD-S21 dual pressure telemetry transmitters (Data Sciences International (DSI)) into the pulmonary artery and femoral artery. This transmitter enables simultaneous measurement of both pulmonary and systemic hemodynamic parameters in the same animal. After a 7-10 day post-operative recovery period, animals were subjected to a normobaric hypoxic (10% oxygen) environment using a Higher Peak Mountain Air Generator (MAG-10) connected to a modified rodent cage via a fitted inlet port. Oxygen (at 10%), temperature, humidity, and CO2 were controlled within normal range and animals were maintained on a 12 hour light-dark cycle with ad libitum access to food and water. After two weeks exposure to 10% O2 hypoxic environment, systolic pulmonary arterial pressure readings increased from 25 mmHg to greater than 50 mmHg. Using a 48 hour baseline average, animals with readings between 50-110 mmHg (standard deviation of less than 10 mmHg) and minimal changes in systolic systemic blood pressure were enrolled for study. Animals were utilized for up to 2 studies per week for 4 weeks with a minimum of 2 days washout between doses of test agent. Compound or vehicle was administered intra-tracheally under light isoflurane anesthesia (5% in oxygen; flow rate 2.0 L/min for 3 minutes). Once anesthetized, rats were placed on an angled intubation stand in supine position and the trachea visualized using a small laryngoscope. Animals then received either 0.5 mL/kg of vehicle or 0.5 mL/kg vehicle containing compound intra-tracheally delivered via microsprayer by use of a Penn-Century Microsprayer® needle 3″ (Model IA-1B-GP) attached to a 1 mL high pressure syringe (Penn Century-Model B-SYR-PL1000) (Penn-Century, Philadelphia, Pa.). The Microsprayer® tip was inserted into the trachea up to the point at which the bend in the needle is close to the tip of the snout, which positions the tip of the Microsprayer® in front of the carina (bifurcation of trachea at the bronchi). After dose delivery the animal is placed on its back in the home cage for recovery. Hemodynamic measurements were continuously recorded and readings consolidated to hourly moving averages. Each animal received a vehicle on Day 1 followed by vehicle or test agent on Day 2. Change from vehicle baseline was calculated by subtracting the hourly Day 1 vehicle response from the hourly Day 2 response and treatment group data was expressed as mean±SEM. Decreases of systolic blood pressure (SBP) and systolic pulmonary arterial pressure (PAP) were measured at a particular IT dose (mpk milligrams per kilogram) for the following Example compounds.

Emax (sGC α1/β1 heterodimer)	EC50 (sGC α1/β1 heterodimer)	Ki [1]	SMILES	Category: maximum peak decrease of systolic blood pressure (SBP) in SHR ([2]; Dose P.O. 3 mpk)	Category: decrease in SBP (at minimum decrease in PAP of ≥15 mmHg) ([3]; Dose IT 0.01 mpk)	Category: decrease in SBP (at minimum decrease in PAP of ≥15 mmHg) ([3]; Dose IT 0.1 mpk)	Category: decrease in SBP (at minimum decrease in PAP of ≥15 mmHg) ([3]; Dose IT 0.03 mpk)	Category: maximum peak decrease of systolic blood pressure (SBP) in SHR ([2]; Dose P.O. 0.3 mpk)
117%	456 nM	0.15 nM	C[C@@]1(c2ccc(CCC(=O)O)cc2)C(=O)Nc2nc(-c3nn(CCC(F)(F)C(F)(F)F)c4cc(Cl)ccc34)nc(N)c21 [Example 10B, (S)-3-(4-{4-Amino-2-[6-chloro-1-(3,3,4,4,4-pentafluorobutyl)-1H-indazol-3-yl]-5-methyl-6-oxo-6,7-dihydro-5H-pyrrolo[2,3-d]pyrimidin-5-yl}phenyl)propanoic acid]	A (decrease in SBP in SHRs 5-25 mmHg)	A (decrease in SBP 0-5 mmHg)			
98%	1030 nM	0.154 nM	C[C@@]1(c2ccc(CCC(=O)O)cc2)C(=O)Nc2nc(-c3nn(CCC(F)(F)C(F)(F)F)c4ncccc34)nc(N)c21 (single isomer, unassigned) [Example 7A]	A (decrease in SBP in SHRs 5-25 mmHg)		B (decrease in SBP 5-10 mmHg)		
93%	362 nM	0.064 nM	C[C@@]1(c2ccc(CCC(=O)O)cc2)C(=O)Nc2nc(-c3nn(Cc4ccccc4F)c4ncccc34)nc(N)c21 [Example 21B, (S)-3-(4-{4-amino-2-[1-(2-fluorobenzyl)-1H-pyrazolo[3,4-b]pyridin-3-yl]-5-methyl-6-oxo-6,7-dihydro-5H-pyrrolo[2,3-d]pyrimidin-5-yl}phenyl)propanoic acid]	A (decrease in SBP in SHRs 5-25 mmHg)			A (decrease in SBP 0-5 mmHg)	
111%	219 nM	0.175 nM	CC(C)(Cc1csc([C@]2(C)C(=O)Nc3nc(-c4nn(CCC(F)(F)C(F)(F)F)c5cc(Cl)ccc45)nc(N)c32)n1)C(=O)O [Example 92B, (S)-3-(2-{4-amino-2-[6-chloro-1-(3,3,4,4,4-pentafluorobutyl)-1H-indazol-3-yl]-5-methyl-6-oxo-6,7-dihydro-5H-pyrrolo[2,3-d]pyrimidin-5-yl}-1,3-thiazol-4-yl)-2,2-dimethylpropanoic acid]				A (decrease in SBP 0-5 mmHg)	A (decrease in SBP in SHRs 5-25 mmHg)
95%	647 nM	0.216 nM	C[C@@]1(c2ccc(CCC(=O)O)cc2)C(=O)Nc2nc(-c3nn(CCC(F)(F)C(F)(F)F)c4cc(F)ccc34)nc(N)c21 [Example 46B, (S)-3-(4-{4-amino-2-[6-fluoro-1-(3,3,4,4,4-pentafluorobutyl)-1H-indazol-3-yl]-5-methyl-6-oxo-6,7-dihydro-5H-pyrrolo[2,3-d]pyrimidin-5-yl}phenyl)propanoic acid]	A (decrease in SBP in SHRs 5-25 mmHg)			A (decrease in SBP 0-5 mmHg)	
103%	194 nM	0.092 nM	CC(C)(Cc1coc(C2(C)C(=O)Nc3nc(-c4nn(Cc5cccc(F)c5)c5cc(F)ccc45)nc(N)c32)n1)C(=O)O (centres unmarked) [Example 195A, 3-(2-{4-amino-2-[6-fluoro-1-(3-fluorobenzyl)-1H-indazol-3-yl]-5-methyl-6-oxo-6,7-dihydro-5H-pyrrolo[2,3-d]pyrimidin-5-yl}-1,3-oxazol-4-yl)-2,2-dimethyl-propanoic acid]		B (decrease in SBP 5-10 mmHg)			
103%	839 nM	0.292 nM	CC1(c2ccc(CCC(=O)O)cn2)C(=O)Nc2nc(-c3nn(CCC(F)(F)C(F)(F)F)c4cc(Cl)ccc34)nc(N)c21 (centres unmarked) [Example 119B, 3-(6-{4-Amino-2-[6-chloro-1-(3,3,4,4,4-pentafluorobutyl)-1H-indazol-3-yl]-5-methyl-6-oxo-6,7-dihydro-5H-pyrrolo[2,3-d]pyrimidin-5-yl}pyridin-3-yl)propanoic acid]				A (decrease in SBP 0-5 mmHg)	
108%	111 nM	0.062 nM	C[C@@]1(c2ccc(CCC(=O)O)cc2)C(=O)Nc2nc(-c3nn(CC4CCCC4)c4cc(Cl)ccc34)nc(N)c21 [Example 160B, (S)-3-(4-{4-amino-2-[6-chloro-1-(cyclopentylmethyl)-1H-indazol-3-yl]-5-methyl-6-oxo-6,7-dihydro-5H-pyrrolo[2,3-d]pyrimidin-5-yl}phenyl)propanoic acid]		B (decrease in SBP 5-10 mmHg)			
118%	157 nM	0.06 nM	CC(C)(Cc1csc([C@]2(C)C(=O)Nc3nc(-c4nn(Cc5ccccc5F)c5cc(Cl)ccc45)nc(N)c32)n1)C(=O)O [Example 95B, (S)-3-(2-{4-amino-2-[6-chloro-1-(2-fluorobenzyl)-1H-indazol-3-yl]-5-methyl-6-oxo-6,7-dihydro-5H-pyrrolo[2,3-d]pyrimidin-5-yl}-1,3-thiazol-4-yl)-2,2-dimethylpropanoic acid]				A (decrease in SBP 0-5 mmHg)	
110%	426 nM	0.165 nM	CC(C)(Cc1csc([C@]2(C)C(=O)Nc3nc(-c4nn(Cc5ncccc5F)c5cc(Cl)ccc45)nc(N)c32)n1)C(=O)O [Example 185A, (S)-3-{2-[4-amino-2-{6-chloro-1-[(3-fluoropyridin-2-yl)methyl]-1H-indazol-3-yl}-5-methyl-6-oxo-6,7-dihydro-5H-pyrrolo[2,3-d]pyrimidin-5-yl]-1,3-thiazol-4-yl}-2,2-dimethyl-propanoic acid]		A (decrease in SBP 0-5 mmHg)			
62.3%	350 nM	0.068 nM	CC(C)(Cc1coc(C2(C)C(=O)Nc3nc(-c4nn(Cc5ccccc5F)c5cc(Cl)ccc45)nc(N)c32)n1)c1nn[nH]n1 (centres unmarked) [Example 239A, 4-amino-2-[6-chloro-1-(2-fluorobenzyl)-1H-indazol-3-yl]-5-methyl-5-{4-[2-methyl-2-(2H-tetrazol-5-yl)propyl]-1,3-oxazol-2-yl}-5,7-dihydro-6H-pyrrolo[2,3-d] pyrimidin-6-one]		A (decrease in SBP 0-5 mmHg)			
117%	52 nM	0.057 nM	CC1(c2nc(CCC(F)(F)C(=O)O)co2)C(=O)Nc2nc(-c3nn(Cc4ccccc4F)c4cc(Cl)ccc34)nc(N)c21 (centres unmarked) [Example 127A, 4-(2-{4-amino-2-[6-chloro-1-(2-fluorobenzyl)-1H-indazol-3-yl]-5-methyl-6-oxo-6,7-dihydro-5H-pyrrolo[2,3-d]pyrimidin-5-yl}-1,3-oxazol-4-yl)-2,2-difluorobutanoic acid]				A (decrease in SBP 0-5 mmHg)	
